Patent publication US20150351390A1, “COMPOSITIONS AND METHODS FOR AUXIN-ANALOG CONJUGATION” (PIONEER HI-BRED INTERNATIONAL, INC., priority 2012, published 2015)

System: soybean seedlings
Test: Soybean seedling response to spot infiltrated auxins and conjugates; as to 1st trifoliate leaf curl: key: 0 = no phenotype; +/− = threshold
Assay type: in vivo
Conditions: for 1st trifoliate leaf curl: spot infiltration

O=C(O)COc1ccc(Cl)cc1Cl [2,4-D, 2,4-dichlorophenoxyacetic acid]
1st trifoliate leaf curl (100 μM): 0
1st trifoliate leaf curl (250 μM): 0
1st trifoliate leaf curl (500 μM): 0
Plant response phenotype, soybean (100, 250 & 500 μM, result in words): increased auxinic response ranging from mild to extreme epinasty
